Counter-ions that a name gives are not always drawn.
Experiments:
[1] = biological target: Sodium-dependent dopamine transporter (Rattus norvegicus, UniProt P23977)
[2] = biological target: T1, Muscarinic acetylcholine receptor M2 (Rattus norvegicus, UniProt P10980)
T1 sequence (P10980 whole entry): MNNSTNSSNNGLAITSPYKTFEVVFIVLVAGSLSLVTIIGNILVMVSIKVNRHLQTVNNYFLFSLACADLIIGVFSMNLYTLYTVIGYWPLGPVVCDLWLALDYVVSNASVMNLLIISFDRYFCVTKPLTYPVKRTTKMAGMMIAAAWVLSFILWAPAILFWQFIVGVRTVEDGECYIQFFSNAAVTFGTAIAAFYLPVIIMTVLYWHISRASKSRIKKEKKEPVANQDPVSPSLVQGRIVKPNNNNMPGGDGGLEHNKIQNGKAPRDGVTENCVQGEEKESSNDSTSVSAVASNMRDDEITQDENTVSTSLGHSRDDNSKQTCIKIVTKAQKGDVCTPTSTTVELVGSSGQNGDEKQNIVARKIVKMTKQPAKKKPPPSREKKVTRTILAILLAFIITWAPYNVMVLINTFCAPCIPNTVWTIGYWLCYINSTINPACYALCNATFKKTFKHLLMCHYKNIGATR

[3] = biological target: Norepinephrine transporter (Rattus norvegicus, UniProt Q9JIA2)

Chain of Sodium-dependent dopamine transporter (P23977 whole entry): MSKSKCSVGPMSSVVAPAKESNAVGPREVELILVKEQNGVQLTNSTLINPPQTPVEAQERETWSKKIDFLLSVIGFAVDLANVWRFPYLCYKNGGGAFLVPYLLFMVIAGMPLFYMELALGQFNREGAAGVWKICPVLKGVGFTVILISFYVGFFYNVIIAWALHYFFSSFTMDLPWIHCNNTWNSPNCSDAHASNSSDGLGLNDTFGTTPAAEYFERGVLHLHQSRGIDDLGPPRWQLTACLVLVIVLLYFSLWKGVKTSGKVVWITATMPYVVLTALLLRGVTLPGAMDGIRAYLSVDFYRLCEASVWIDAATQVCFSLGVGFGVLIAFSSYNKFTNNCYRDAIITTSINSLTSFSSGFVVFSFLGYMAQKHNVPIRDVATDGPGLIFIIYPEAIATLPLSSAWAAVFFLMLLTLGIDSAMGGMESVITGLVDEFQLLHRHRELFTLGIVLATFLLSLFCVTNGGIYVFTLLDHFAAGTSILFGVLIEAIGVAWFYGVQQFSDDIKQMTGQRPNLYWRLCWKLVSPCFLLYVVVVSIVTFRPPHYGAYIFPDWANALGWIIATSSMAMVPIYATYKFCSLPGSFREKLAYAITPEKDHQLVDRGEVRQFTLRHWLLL

CNC/C=C(/c1ccc(Br)cc1)c1cccnc1
Ki [1]: > 10 µM

CN(C)CCC=C1c2ccccc2CCc2ccccc21
Ki [1]: > 10 µM
Ki [2]: 0.32 µM
Ki [3]: 0.13 µM

N[C@H]1CC[C@@H](c2ccc(Cl)c(Cl)c2)c2ccccc21
Ki [1]: 3.8 µM
Ki [3]: 4.6 µM

CN(C)CC/C=C1/c2ccccc2COc2ccccc21
Ki [2]: 0.71 µM

CN[C@@H]1CC[C@@H](c2ccccc2)c2ccccc21
Ki [1]: 0.15 µM
Ki [2]: 4.7 µM
Ki [3]: 0.018 µM

COCCCC/C(=N\OCCN)c1ccc(C(F)(F)F)cc1 [(1E)-5-methoxy-1-[4-(trifluoromethyl)phenyl]pentan-1-one O-(2-aminoethyl)oxime]
Ki [1]: > 10 µM
Ki [3]: 1.9 µM

CN(C)CCCN1c2ccccc2CCc2ccc(Cl)cc21 [CLOMIPRAMINE HYDROCHLORIDE]
Ki [1]: 8.1 µM

CNCCCN1c2ccccc2CCc2ccccc21 [Desmethylimipramine]
Ki [2]: 3.5 µM

CNCCC=C1c2ccccc2CCc2ccccc21 [NORTRIPTYLINE]
Ki [1]: > 10 µM
Ki [3]: 0.025 µM

CN[C@@H]1CC[C@@H](c2ccc(Cl)c(Cl)c2)c2ccccc21 [[4-(3,4-Dichloro-phenyl)-1,2,3,4-tetrahydro-naphthalen-1-yl]-methyl-amine]
Ki [2]: > 10 µM

CN(C)C/C=C(/c1ccc(Br)cc1)c1cccnc1 [cis-[3-(4-Bromo-phenyl)-3-pyridin-3-yl-allyl]-dimethyl-amine;HCl]
Ki [1]: > 10 µM

From BindingDB's records for PubMed 6310078 (Pfizer, 1983)
